Experimental data: US10420751B2, “Methods of treating inflammatory bowel disease with AMD3100 and tacrolimus” (priority 2009, dated 2019)
Where two headings read alike, the source gives them in different places.

Experiments:
[1] = biological target: CXCR4 chomokin receptor (Homo sapiens, UniProt P61073); details: Peled et al.; read-out: IC50, binds and inhibits CXCR4; cited from earlier work
[2] = tested on: skin xenograft (C57/B6 mice into Lewis rats); assay: Skin xenograft survival, mouse into rat; assay type: in vivo; details: FK 0.1 mg/kg and/or AMD 1 mg/kg
[3] = tested on: liver allografts (DA into GFP-Lewis rats); assay: Histology (H&E), GFP microscopy and Xenogen imaging of small liver allografts; assay type: in vivo, rat; details: liver allografts 7 days after transplantation, versus control group
Experimental: Transplanted rats were divided by four groups: (1) control group (treated with same volume of saline); (2) low dose of immunosuppressant (FK-506, 0.1 mg/kg/day); (3) stem cell mobilizer (AMD3100, 1 mg/kg/day); and (4) combination of low dose FK-506 and AMD3100. AMD3100 and/or FK-506 were injected subcutaneously immediately after reperfusion and day 1, 2, 3 and 7 following liver transplantation (FIG. 1). Some of the animals were sacrificed at day 3, 7 and 10 after transplantation and liver tissue, spleen and peripheral blood were collected.
Histological changes in liver tissue sections were evaluated by H&E staining. Recipient-derived GFP positive cells in liver tissue sections were analyzed by confocal fluorescence microscopy.
GFP whole-organ fluorescence was measured using the Xenogen system.

[4] = tested on: whole liver allograft (DA into Lewis rats); assay: Whole liver transplantation, rejection model: survival; details: s.c. day 0,1,2,3,7,10,15, controls rejected within twelve days
Experimental: In whole liver transplantation rats, plerixafor and/or tacrolimus were injected subcutaneously immediately after reperfusion and on days 1, 2, 3, 7, 10 and 15 following transplantation.

[5] = tested on: cell migration stimulated by CXCL12; details: Peled et al.; cited from earlier work
[6] = tested on: skin allograft (DA into Lewis); assay: Skin allograft survival; details: FK 0.1 mg/kg and/or AMD 1 mg/kg; controls rejected within 7 days
Experimental: DA rats or C57/B6 mice were used as skin donors and GFP transgenic Lewis rats were used as recipients. A graft bed (2.5×3 cm) was prepared on the back of a recipient rat; special care was given to preserving the panniculus carnosus. A 2.5×3 cm^2 graft, which had been prepared from the body trunk of a donor, was transplanted with interrupted sutures of 5-0 silk. The graft was covered with a protective tape and the first inspection was conducted 2 days after skin grafting and was followed by daily inspection. The rejection was defined as the day when the skin graft developed a red-brown color and hard consistency.
FK506 were injected subcutaneously every day following transplantation.

[7] = tested on: CD34+, c-Kit+, Thy-1+ and Sca1+ cells in peripheral blood; details: after liver transplantation, compared to control animals, AMD3100 1 mg/kg/day s.c.
Experimental: Single-cell suspensions (5×10^5) of peripheral blood monocytes were analyzed for CD34, CXCR4, c-Kit, Thy-1, and Sea-1 expression. Nonspecific antibody binding was blocked with goat and rat serum (Sigma) for 30 minutes.

[8] = tested on: small liver allograft (DA into Lewis rats); assay: Small liver transplantation, acute rejection model: survival; details: for recipient survival / liver allograft acceptance: small liver DA into Lewis, FK-506 0.1 mg/kg/day and/or AMD3100 1 mg/kg/day s.c. day 0,1,2,3,7, controls rejected within 12 days; for survival of one of five recipients: small liver, low dose FK-506 0.1 mg/kg/day alone
Experimental: Orthotopic liver transplantation (OLT) was performed under isoflurane (Abbott laboratories, North Chicago, Ill.) inhalation anesthesia according to a method modified from previously described. Small liver transplantation consisted of removal of the left lateral lobe, the left portion of the median lobe, and the anterior and posterior caudate lobes. This reduced the liver mass by about 50%. The livers were flushed in situ with 10 ml cold saline via the portal vein, explanted and immersed in cold saline solution. The host liver was excised by ligation and division of the right adrenal and lumbar veins. The hepatic artery was ligated and divided. The bile duct was cannulated by insertion of a tube 2 mm in length (outer diameter, 1.2 mm) via choledocotomy and secured with a circumferential 8-0 silk suture. […] The suprahepatic vena cava was pulled down using a cotton tape passed around the host liver and cross-clamped with a baby Statinksy clamp. The vessels were divided and liver was removed. The donor suprahepatic vena cava was anstomosed end-to-end with the host suprahepatic vena cava with running 8-0 prolene. The portal vein and infra hepatic vena cava were anastomosed using the cuff technique described previously. The common bile duct of the donor was cannulated with the small tube residing in the host bile duct and tied in place. The hepatic artery was not reconstructed.
Some of the animals were sacrificed at day 3, 7 and 10 after transplantation and liver tissue, spleen and peripheral blood were collected.
To test this hypothesis, liver transplants from dark agouti (DA) rats into Lewis rats, i.e. the rejection model were performed. Recipient rats were treated with a hematopoietic stem cell mobilizer (plerixafor) and/or low dose immunosuppressant (tacrolimus). Transplanted rats were divided into four groups: 1) a control group treated with saline), 2) treatment with low dose immunosuppressant (tacrolimus, 0.1 mg/kg/day), 3) stem cell mobilizer (plerixafor (AMD3100), 1 mg/kg/day) alone, or 4) a combination of low dose tacrolimus and plerixafor.
In small liver transplantation rats, plerixafor and/or tacrolimus were injected subcutaneously immediately after reperfusion and on days 1, 2, 3 and 7 following transplantation. In whole liver transplantation rats, plerixafor and/or tacrolimus were injected subcutaneously immediately after reperfusion and on days 1, 2, 3, 7, 10 and 15 following transplantation. Animals from each group were sacrificed on post-op days 3, 7 and 10 and liver tissue, spleen and peripheral blood were collected.

[9] = tested on: kidney allograft (DA to Lewis); assay: Orthotopic kidney transplantation, acute rejection model: survival; assay type: in vivo, rat; details: FK 0.05 mg/kg and/or AMD 1 mg/kg s.c.; controls rejected within 10 days
Experimental: Specifically, the DA to Lewis model of acute rejection was studied. Briefly, donor kidneys obtained from male DA rats were flushed with 10 ml cold saline and were stored at 4° C. while the recipient to be prepared. Total cold ischemic time was no longer than 40 minutes. Lewis male recipients were transplanted following left native nephrectomy. The donor renal artery, vein and ureter were anastomosed to the recipient renal artery, vein and ureter. The anastomosis was completed using 10-0 silk sutures. The right native kidney was removed before closing the abdomen.
AMD3100 were injected subcutaneously immediately after reperfusion (day 0) and day 2, 4 and 6 following kidney transplantation. […] Treatments were repeated in combination treated group at 1, 2 and 3 months after transplantation. Some of animals were sacrificed at day 7 and 30 after transplantation and kidney tissue, spleen and peripheral blood were collected.

[10] = tested on: c-Kit+, CD133+, Lin− Thy1+c-Kit+CD133+ cells in peripheral blood; assay: Mobilization of stem cells into peripheral blood (CBC and flow cytometry); assay type: in vivo, rat; details: 3 hours after injection
Experimental: Single-cell suspensions (5×10^5) of peripheral blood monocytes were analyzed for lineage negative CD34, CD133, Thy1, and c-Kit expression. Nonspecific antibody binding was blocked with goat and rat serum (Sigma) for 30 minutes. Peripheral blood cells were isolated from animals at 3 hours after injection with AMD and/or FK. Complete blood count (CBC) was measured and stem cell markers were quantified by flow cytometry. The absolute number of stem cells was calculated as WBC (-thous./μL)×% of stem cells.

CXCR4 chomokin receptor, sequence (P61073 whole entry): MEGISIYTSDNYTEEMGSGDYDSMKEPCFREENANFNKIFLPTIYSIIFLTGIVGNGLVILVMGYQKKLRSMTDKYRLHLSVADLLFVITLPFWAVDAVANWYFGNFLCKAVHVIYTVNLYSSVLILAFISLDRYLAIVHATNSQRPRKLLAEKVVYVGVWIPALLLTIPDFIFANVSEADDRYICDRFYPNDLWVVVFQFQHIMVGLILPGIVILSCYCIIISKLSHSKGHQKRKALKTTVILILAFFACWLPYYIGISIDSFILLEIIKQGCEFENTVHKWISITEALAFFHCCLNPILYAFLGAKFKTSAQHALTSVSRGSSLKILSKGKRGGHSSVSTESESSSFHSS

Row | Compound | IC50 [1] [nM] | skin xenograft survival [2] | mononuclear/inflammatory cellular infiltration in portal areas (H&E) ([3]; listed as AMD) | mononuclear/inflammatory cellular infiltration in portal areas (H&E) ([3]; listed as plerixafor) | recipient survival [4] | IC50 [5] [nM] | skin allograft survival / acceptance [6] | percentage of CD34+, c-Kit+, Thy-1+ and Sca1+ cells in peripheral blood ([7]; listed as AMD) | percentage of CD34+, c-Kit+, Thy-1+ and Sca1+ cells in peripheral blood ([7]; listed as plerixafor) | recipient survival / liver allograft acceptance ([8]; listed as AMD) | recipient survival / liver allograft acceptance ([8]; listed as plerixafor) | recipient survival / kidney allograft acceptance [9] | absolute number of c-Kit+, CD133+ or Lin− and Thy1+c-Kit+CD133+ triple positive cells in peripheral blood ([10]; compared to saline or G-CSF treated animals) | mononuclear/inflammatory cellular infiltration in portal areas (H&E) [3] | mononuclear/inflammatory cellular infiltration in portal areas (H&E) ([3]; listed as FK-506) | recipient survival / liver allograft acceptance ([8]; listed as FK-506) | recipient survival / liver allograft acceptance ([8]; listed as tacrolimus) | survival of one of five recipients [8] [months] | survival of one of five recipients ([8]; 0.1 mg/kg/day) | c-Kit+ and CD133+ cells in peripheral blood ([10]; low-dose FK (0.1 mg/kg))
1 | 4F-benzoyl-TN14003 [BKT140] | ~1 | – | – | – | – | – | – | – | – | – | – | – | – | – | – | – | – | – | – | –
2 | c1cc(CN2CCCNCCNCCCNCC2)ccc1CN1CCCNCCNCCCNCC1 [AMD3100, 1,1′-[1,4-phenylenebis(methylene)]bis-1,4,8,11-tetraazacyclo-tetradecane] | – | did not prolong the xenograft survival | the number of infiltrating cells were less | the number of infiltrating cells was reduced | did not significantly prolong recipient survival | 51 ± 17 | did not significantly prolong the allograft survival | significantly increase | significantly increased | did not significantly prolong the recipient survival | did not significantly prolong recipient survival | did not prolong the recipient survival | significantly increased | – | – | – | – | – | – | –
3 | C=CC[C@@H]1/C=C(\C)C[C@H](C)C[C@H](OC)[C@H]2O[C@@](O)(C(=O)C(=O)N3CCCC[C@H]3C(=O)O[C@H](/C(C)=C/[C@@H]3CC[C@@H](O)[C@H](OC)C3)[C@H](C)[C@@H](O)CC1=O)[C@H](C)C[C@@H]2OC [Tacrolimus] | – | did not prolong the xenograft survival | – | – | did not significantly prolong recipient survival | – | did not significantly prolong the allograft survival | – | – | – | – | did not prolong the recipient survival | – | the number of infiltrating cells was reduced | the number of infiltrating cells were less | did not significantly prolong the recipient survival | did not significantly prolong recipient survival | 4 | more than 1 months | significantly increases
